The source of these data is patent publication US8779195B2, “Polyamine derivatives” (Nihon University, priority 2006, dated 2014).

For data set [1], the system named is mouse convulsion induced by NMDA. Briefly: suppression of NMDA-induced convulsion in mouse (permeability through the blood brain barrier). The format is in vivo. The protocol: Polyamine derivatives according to the present invention were evaluated for permeability through the blood brain barrier.
When 100 mg/kg NMDA was injected into a mouse abdominal cavity, convulsion is induced several minutes later. Then, the convulsion suppression effect of a polyamine derivative on mouse convulsion induced by NMDA was investigated.
When 0.5 mg/kg TsPDG and BsPDG were intravenously administered into a mouse 30 minutes before NMDA injection, the time of convulsion induced by NMDA was reduced by 43% and 39%. This reduction rate of convulsion time was equivalent to that (38%) when 10 mg/kg memantine intravenously administered.

Another data set deals with NMDA receptor NR1/NR2B (Rattus norvegicus, UniProt P35439+Q00960). Briefly: two-electrode voltage clamp, NMDA receptor activity inhibition in Xenopus oocytes (NR1/NR2B). The format is cell-based. The method, then:
(§1) To confirm pharmacological function of TsPD, TsPDG, TsSPMG, BsPDG, and Tosyl-SPM synthesized above (synthesized by the method described in Patent Document 1 mentioned above), the effect of these compounds on NMDA receptor was measured by a two-electrode voltage clamp method.
(§2) This method can be carried out in accordance with the method of Masuko et al. (Masuko T. et al., Mol. Pharmacol. 55: 957-969 (1999); Masuko T. et al., Nuerosci. Lett. 371: 30-33 (2004); Masuko T. et al., Chem. Pharm. Bull. 53 (4) 444-447 (2005)). To the oocyte, cRNAs of an NR1 subunit and an NR2 subunit of NMDA receptor were injected in a ratio of 1:5 (NR1: 0.1 to 4 ng, NR2: 0.5 to 20 ng) to obtain the oocyte in which NMDA receptor was expressed.
(§3) The oocytes were cultured in a medium (96 mM NaCl, 2 mM KCl, 1 mM MgCl2, 1.8 mM CaCl2, 5 mM Na-HEPES, 2.5 mM sodium pyruvate, 50 μg/ml gentamicin, pH=7.5) at 19° C. for 1 to 3 days.
(§4) At the measurement date, K^+-BAPTA was injected in the oocytes and then, the activity of the receptors was measured by the two-electrode voltage clamp method (described later) using a recording buffer (96 mM NaCl, 2 mM KCl, 1.8 mM BaCl2, 10 mM Na-HEPES, pH=7.5).
(§5) Note that there is a single type of gene in NR1 and 4 types of genes, namely NR2A to NR2D, in NR2. There are NR1/NR2A, NR1/NR2B, NR1/NR2C and NR1/NR2D subtypes in NMDA receptor. However, NR1/NR2A and NR1/NR2B subtypes are conceivably present widely in the brain. Therefore, the activity inhibitory effects on these two types were measured in the following experiments.
(§6) The two-electrode voltage clamp method was carried out in accordance with the method of Williams et al. (Williams, K. et al., Mol. Pharmacol 38: 85-108). The current flowing through the entire membrane of the oocyte was measured by an amplifier CEZ-1250 (Nihon Kohden Corporation) for the two-electrode voltage clamp method. The electrode was filled with 3M potassium chloride and the resistance was set at 0.4 to 4 MΩ. In measurement, glutamate and glycine were added as NMDA agonists.
(§7) To the oocytes obtained by the aforementioned method, various concentrations of TsPD, TsPDG, TsSPMG, BsPDG and Tosyl-SPM were added. The activity inhibitory effect on […] subtypes was measured at a fixed voltage (Vh) of −70 mV (resting membrane potential).
(§8) As a comparative example, the same measurement is performed by use of Dansyl-SPM represented by the aforementioned formula (III).
(§9) Values obtained from 4 to 5 oocytes were averaged. The average value±S.E.M. was regarded as a measurement value.
In general terms: In two-electrode clamp one electrode senses voltage and the other passes current.

Data set [2] in a line: cytotoxicity test, Alamar blue assay. The format is cell-based. Particulars: human, 24 hours exposure, read-out: IC50 (concentration at which respiratory activity is 50%). The protocol: A cytotoxicity test was carried out with respect to TsPD, TsPDG, TsSPMG, BsPDG and Tosyl-SPM. Also in this test, Dansyl-SPM was used in a comparative example.
SH-SY5Y neuroblastoma cell line was purchased from the American Type Culture Collection. The cells were cultured in a D-MEM medium to which penicillin (100 U/ml), streptomycin (100 U/ml) and inactivated fetal bovine serum (Gibco) were added. The cells were maintained in a CO2 incubator at 37° C. and kept under the condition of 95% air and 5% CO2.
Undifferentiated SH-SY5Y cells were exposed to various concentrations of polyamine derivatives for 24 hours. An Alamar blue stock solution was transferred to a 96 well plate. The final assay volume was set at 100 μl/well and the final concentration of the Alamar blue was set at 10%. Six hours later, reduced Alamar blue was measured at a wavelength of 570 nm (FIG. 3). A survival rate (%) of the cells exposed to a polyamine derivative for 24 hours was expressed by a relative value of respiratory activity of the cells based on respiratory activity (100%) of mitochondria of the cells to which no drug is added.

Data set [3] concerns Rat hippocampal primary culture cells. Kind of data set: protective effect against nerve cell death induced by glutamate (lactate dehydrogenase release). To be noted: glutamate exposure one hour, LDH release after 24 hours. The format is cell-based. The method, then: (§10) Next, the protective effect of polyamine derivatives against nerve cell death due to excitotoxicity was investigated. Rat hippocampal primary culture cells were cultured for seven days and exposed to glutamate or NMDA for one hour. Nerve cell death induced in this manner was evaluated based on lactate dehydrogenase release after 24 hours as an index, significant cell death was observed. In addition, it was observed that nerve cell death caused by glutamate and NMDA exposure has concentration dependency.
(Release of lactate dehydrogenase indicates damage to the cell membrane.)

A further data set concerns the target NMDA receptor NR1/NR2A (Rattus norvegicus, UniProt P35439+Q00959). Kind of data set: two-electrode voltage clamp, NMDA receptor activity inhibition in Xenopus oocytes (NR1/NR2A). The format is cell-based. The protocol: as §1, §2, §3, §4, §5, §6, §7, §8, §9
Data set [4] concerns Rat hippocampal primary culture cells. Kind of data set: protective effect against nerve cell death induced by NMDA (lactate dehydrogenase release). The format is cell-based. To be noted: NMDA exposure one hour, LDH release after 24 hours. The protocol: as §10
Another data set deals with NMDA receptor. Particulars: read-out: IC50 of memantine (NMDA receptor); cited from earlier work.
Setting [5] is: 0.5 mg/kg intravenously 30 minutes before 100 mg/kg NMDA i.p.
[6] abbreviates: Xenopus oocytes, Vh -70 mV, glutamate and glycine as agonists, mean ± S.E.M. of 4 to 5 oocytes, read-out: IC50 NR1/NR2B.
Setting [7] is: undifferentiated SH-SY5Y neuroblastoma cells.
The mark [8] stands for this setting: Xenopus oocytes, Vh -70 mV, glutamate and glycine as agonists, mean ± S.E.M. of 4 to 5 oocytes, read-out: IC50 NR1/NR2A.

Structures are written as SMILES. Structures can show the parent of a compound that is named as a salt. Where two headings read alike, the source gives them in different places. Bounds are passed on as bounds.

Chain of NMDA receptor NR1/NR2A (Q00959 23-1464, other chains not shown): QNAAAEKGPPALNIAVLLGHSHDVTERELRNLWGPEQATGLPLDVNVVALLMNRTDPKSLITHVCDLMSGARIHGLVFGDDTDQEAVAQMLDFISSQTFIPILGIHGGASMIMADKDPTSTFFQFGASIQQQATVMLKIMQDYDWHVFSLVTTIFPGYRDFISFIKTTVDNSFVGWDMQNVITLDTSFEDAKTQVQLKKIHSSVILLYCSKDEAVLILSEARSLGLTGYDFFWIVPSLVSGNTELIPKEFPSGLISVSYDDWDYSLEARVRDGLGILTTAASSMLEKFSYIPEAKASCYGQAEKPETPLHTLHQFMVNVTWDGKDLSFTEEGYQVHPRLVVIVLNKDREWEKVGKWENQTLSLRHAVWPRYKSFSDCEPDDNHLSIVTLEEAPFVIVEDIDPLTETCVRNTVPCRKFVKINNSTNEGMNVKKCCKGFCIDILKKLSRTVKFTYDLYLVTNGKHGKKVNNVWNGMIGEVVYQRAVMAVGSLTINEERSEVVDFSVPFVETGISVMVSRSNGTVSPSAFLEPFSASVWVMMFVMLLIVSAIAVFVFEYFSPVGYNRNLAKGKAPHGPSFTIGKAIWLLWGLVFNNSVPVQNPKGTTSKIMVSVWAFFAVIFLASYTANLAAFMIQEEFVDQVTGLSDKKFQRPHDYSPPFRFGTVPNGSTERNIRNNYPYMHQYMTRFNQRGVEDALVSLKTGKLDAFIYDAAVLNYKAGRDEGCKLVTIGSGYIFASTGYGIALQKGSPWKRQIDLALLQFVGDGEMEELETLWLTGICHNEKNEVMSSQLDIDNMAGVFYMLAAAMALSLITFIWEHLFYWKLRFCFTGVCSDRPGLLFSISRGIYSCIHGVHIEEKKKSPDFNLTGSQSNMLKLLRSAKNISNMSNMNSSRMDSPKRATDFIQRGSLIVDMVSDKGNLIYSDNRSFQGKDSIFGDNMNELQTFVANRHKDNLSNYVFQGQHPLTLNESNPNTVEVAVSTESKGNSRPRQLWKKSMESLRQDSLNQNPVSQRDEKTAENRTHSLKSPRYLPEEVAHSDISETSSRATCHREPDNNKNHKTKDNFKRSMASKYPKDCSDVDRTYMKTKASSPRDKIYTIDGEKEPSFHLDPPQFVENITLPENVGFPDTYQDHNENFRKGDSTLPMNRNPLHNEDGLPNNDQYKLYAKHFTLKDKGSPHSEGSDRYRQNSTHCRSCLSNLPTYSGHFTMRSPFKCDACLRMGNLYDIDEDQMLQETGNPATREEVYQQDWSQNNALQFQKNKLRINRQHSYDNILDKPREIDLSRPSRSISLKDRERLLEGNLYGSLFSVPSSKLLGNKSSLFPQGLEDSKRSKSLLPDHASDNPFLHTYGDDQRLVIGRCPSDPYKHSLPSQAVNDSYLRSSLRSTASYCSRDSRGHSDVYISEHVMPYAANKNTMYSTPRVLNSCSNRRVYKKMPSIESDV
Chain of NMDA receptor NR1/NR2B (Q00960 27-1482, other chains not shown): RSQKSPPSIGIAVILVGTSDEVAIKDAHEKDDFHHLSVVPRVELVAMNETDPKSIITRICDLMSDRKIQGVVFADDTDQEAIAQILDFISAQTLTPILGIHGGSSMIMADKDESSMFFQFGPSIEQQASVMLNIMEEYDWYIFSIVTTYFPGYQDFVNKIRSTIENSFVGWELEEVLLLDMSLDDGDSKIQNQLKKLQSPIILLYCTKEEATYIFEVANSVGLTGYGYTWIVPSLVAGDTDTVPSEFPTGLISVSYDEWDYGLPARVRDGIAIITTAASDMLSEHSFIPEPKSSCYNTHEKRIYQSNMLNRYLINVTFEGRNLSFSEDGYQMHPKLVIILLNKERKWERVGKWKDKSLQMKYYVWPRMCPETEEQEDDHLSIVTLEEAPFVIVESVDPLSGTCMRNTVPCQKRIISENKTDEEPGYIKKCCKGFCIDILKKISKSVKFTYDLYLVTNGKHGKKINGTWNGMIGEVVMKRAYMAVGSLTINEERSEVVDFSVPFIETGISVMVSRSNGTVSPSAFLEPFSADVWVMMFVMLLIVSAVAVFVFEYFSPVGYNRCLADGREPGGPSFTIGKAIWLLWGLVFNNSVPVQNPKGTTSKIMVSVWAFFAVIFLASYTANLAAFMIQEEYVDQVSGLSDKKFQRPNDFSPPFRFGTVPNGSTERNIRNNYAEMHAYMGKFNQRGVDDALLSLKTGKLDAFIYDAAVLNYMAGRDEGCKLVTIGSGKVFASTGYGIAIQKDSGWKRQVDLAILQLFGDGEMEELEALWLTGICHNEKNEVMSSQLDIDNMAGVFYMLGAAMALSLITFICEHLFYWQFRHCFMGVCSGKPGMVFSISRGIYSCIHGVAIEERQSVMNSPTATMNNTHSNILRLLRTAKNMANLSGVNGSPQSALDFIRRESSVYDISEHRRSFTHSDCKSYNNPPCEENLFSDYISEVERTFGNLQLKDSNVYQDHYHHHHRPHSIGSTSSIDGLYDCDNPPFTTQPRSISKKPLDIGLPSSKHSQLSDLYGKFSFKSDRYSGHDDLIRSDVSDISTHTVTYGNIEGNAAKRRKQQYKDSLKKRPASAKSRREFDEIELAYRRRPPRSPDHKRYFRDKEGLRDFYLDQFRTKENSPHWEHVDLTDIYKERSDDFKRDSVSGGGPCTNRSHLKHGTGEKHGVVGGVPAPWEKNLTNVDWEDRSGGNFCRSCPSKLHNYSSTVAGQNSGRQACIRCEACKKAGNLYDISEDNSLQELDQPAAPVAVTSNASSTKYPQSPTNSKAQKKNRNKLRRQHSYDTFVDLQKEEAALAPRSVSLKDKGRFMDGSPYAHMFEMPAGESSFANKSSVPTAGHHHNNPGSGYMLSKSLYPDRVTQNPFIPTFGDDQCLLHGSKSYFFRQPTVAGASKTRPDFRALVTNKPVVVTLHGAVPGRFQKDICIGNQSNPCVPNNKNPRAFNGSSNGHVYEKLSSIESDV

As for `Cc1ccc(S(=O)(=O)NCCCCNCCCCNCCCCNC(=N)N)cc1` [TsPDG], the “reduction of the time of convulsion induced by NMDA” value (from here on “reduction”) in data set [1] (setting [5]) stood at 43%. In addition, the IC50 turned out to be 0.027 ± 0.002 µM against NMDA receptor NR1/NR2B and 0.017 ± 0.002 µM against NMDA receptor NR1/NR2A. Moreover, in data set [2] (undifferentiated SH-SY5Y cells), the IC50 at 24 h stood at 2870 ± 66 µM. Moreover, the “suppression of nerve cell death induced by glutamate” value (from here on “suppression … by glutamate”) in data set [3] (1 μM compound) is given as “significantly suppressed”. In addition, the “suppression of nerve cell death induced by NMDA” value (shortened to “suppression … by NMDA”) in data set [4] (1 μM compound) is recorded as “completely suppressed”.
With `CN(C)c1cccc2c(S(=O)(=O)NCCCNCCCCNCCCN)cccc12` [Dansyl-SPM, N^1-Dansyl-Spermine, reference compound], the IC50 on NMDA receptor NR1/NR2B (setting [6]) came to 0.31 ± 0.03 µM; on NMDA receptor NR1/NR2A (setting [8]) it was 0.27 ± 0.03 µM. In data set [2] (setting [7]), the IC50 at 24 h stood at 30 ± 1 µM.
On to `Cc1ccc(S(=O)(=O)NCCCNCCCCNCCCNC(=N)N)cc1` [TsSPMG], for which the results for the IC50 on NMDA receptor NR1/NR2B (setting [6]) and on NMDA receptor NR1/NR2A (setting [8]) were 0.37 ± 0.05 µM and 0.32 ± 0.03 µM, respectively. In addition, the IC50 at 24 h in data set [2] (undifferentiated SH-SY5Y cells) came out at 2640 ± 37 µM.
Regarding `CC12CC3CC(C)(C1)CC(N)(C3)C2` [memantine, memantine hydrochloride, reference compound], the “reduction” value in data set [1] (10 mg/kg intravenously) is listed as 38%. At NMDA receptor, the IC50 is 1 µM.
On to `CCCCS(=O)(=O)NCCCCNCCCCNCCCCNC(=N)N` [BsPDG], for which, in data set [1] (setting [5]), the “reduction” value is given as 39%. In addition, the IC50 at NMDA receptor NR1/NR2B (setting [6]) was 0.024 ± 0.003 µM; on NMDA receptor NR1/NR2A (setting [8]) it was 0.015 ± 0.001 µM. In data set [2] (undifferentiated SH-SY5Y cells), the IC50 at 24 h is over 3000 µM. Moreover, in data set [3] (1 μM compound), the “suppression … by glutamate” value is recorded as “significantly suppressed”. The “suppression … by NMDA” value in data set [4] (1 μM compound) is recorded as “completely suppressed”.
Turning to `Cc1ccc(S(=O)(=O)NCCCCNCCCCNCCCCN)cc1` [TsPD], the values for the IC50 on NMDA receptor NR1/NR2B (setting [6]) and at NMDA receptor NR1/NR2A (setting [8]) were 0.15 ± 0.001 µM and 0.074 ± 0.003 µM, respectively. For the same compound, the IC50 at 24 h in data set [2] (undifferentiated SH-SY5Y cells) was determined as 1830 ± 46 µM. The “suppression … by glutamate” value in data set [3] (10 μM compound) is “significantly suppressed”. In data set [4] (10 μM compound), the “suppression … by NMDA” value was “completely suppressed”.
Consider `Cc1ccc(S(=O)(=O)NCCCNCCCCNCCCN)cc1` [Tosyl-SPM, N^1-Tosyl-Spermine, reference compound], for which the IC50 on NMDA receptor NR1/NR2B (setting [6]) worked out at 0.4 ± 0.01 µM; on NMDA receptor NR1/NR2A (setting [8]), 0.35 ± 0.01 µM. For the same compound, the IC50 at 24 h in data set [2] (setting [7]) worked out at 336 ± 7 µM.
